ChEMBL document CHEMBL1126610, “Amidinium cation as a mimic of allylic carbocation: synthesis and squalene synthetase inhibitory activity of an amidinium analog of a carbocation intermediate” (J Med Chem, 1993)

Tests used:
Squalene synthase [1] = molecular target: T1, Squalene synthase (Rattus norvegicus, UniProt Q02769); assay: Inhibitory activity against squalene synthetase in rat liver microsomal assay; format: microsomes
T1 sequence (Q02769 whole entry): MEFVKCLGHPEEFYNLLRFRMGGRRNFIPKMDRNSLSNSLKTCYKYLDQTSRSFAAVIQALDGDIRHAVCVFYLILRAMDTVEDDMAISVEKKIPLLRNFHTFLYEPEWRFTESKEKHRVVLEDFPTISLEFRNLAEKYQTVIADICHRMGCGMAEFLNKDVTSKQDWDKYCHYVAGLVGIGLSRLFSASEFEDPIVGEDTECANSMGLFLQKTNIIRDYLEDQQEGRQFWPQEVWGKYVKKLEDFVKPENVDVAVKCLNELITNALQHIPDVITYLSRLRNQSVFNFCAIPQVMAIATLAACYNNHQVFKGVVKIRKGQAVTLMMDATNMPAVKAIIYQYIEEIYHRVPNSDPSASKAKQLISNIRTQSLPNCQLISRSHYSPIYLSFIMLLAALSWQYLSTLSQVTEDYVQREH

Squalene synthase [2] = molecular target: T1, Squalene synthase; assay: Inhibitory activity against squalene synthetase in the presence of inorganic pyrophosphate in rat liver microsomal assay; format: microsomes

Work on `CC(C)=CCC/C(C)=C/CC/C(C)=C/C/N=C/N(C)CC/C=C(\C)CCC=C(C)C` yielded an IC50 (Squalene synthase [1]) of 6.9 µM and an IC50 (Squalene synthase [2]) of 0.1 µM.
